Reference: patent publication US9566290B2, “Boron-containing small molecules” (Anacor Pharmaceuticals, Inc., priority 2005, dated 2017)

Row | melting point | SMILES
1 | 102 to 104 °C | COc1ccc2c(c1)COB2O [C7, 5-methoxybenzo[c][1,2]oxaborol-1(3H)-ol]
2 | 124 to 128 °C | Cc1ccc2c(c1)COB2O [C8, 5-methylbenzo[c][1,2]oxaborol-1(3H)-ol]
3 | 139 to 143 °C | OB1OCc2ccc3ccccc3c21 [C11, naphtho[1,2-c][1,2]oxaborol-1(3H)-ol]
4 | 110 to 117.5 °C | OB1OCc2ccc(F)cc21 [C13, 6-fluorobenzo[c][1,2]oxaborol-1(3H)-ol]
5 | 146 to 149 °C | N#Cc1cccc(Oc2ccc3c(c2)B(O)OC3)c1 [C19, 3-(1-hydroxy-1,3-dihydrobenzo[c][1,2]oxaborol-6-yloxy)benzonitrile]
6 | 119 to 130 °C | OB1OCc2ccc(Oc3ccc(Cl)cc3)cc21 [C20, 6-(4-chlorophenoxy)benzo[c][1,2]oxaborol-1(3H)-ol]
7 | 95 to 99 °C | OB1OCc2ccc(Oc3ccccc3)cc21 [C21, 6-phenoxybenzo[c][1,2]oxaborol-1(3H)-ol]
8 | 121 to 124 °C | OB1OCc2ccc(Sc3ccccc3)cc21 [C28, 6-(phenylthio)benzo[c][1,2]oxaborol-1(3H)-ol]
9 | 97 to 101 °C | OB1OCc2ccc(Oc3ccc(OC(F)(F)F)cc3)cc21 [C29, 6-(4-(trifluoromethoxy)phenoxy)benzo[c][1,2]oxaborol-1(3H)-ol]
10 | 85 to 95 °C | CN(c1ccc2c(c1)COB2O)S(=O)(=O)c1ccccc1 [C30, N-(1-hydroxy-1,3-dihydrobenzo[c][1,2]oxaborol-5-yl)-N-methylbenzenesulfonamide]
11 | 126 to 129 °C | COc1ccc(Oc2ccc3c(c2)B(O)OC3)cc1 [C31, 6-(4-methoxyphenoxy)benzo[c][1,2]oxaborol-1(3H)-ol]
12 | 95 to 100 °C | COc1ccc(Sc2ccc3c(c2)B(O)OC3)cc1 [C32, 6-(4-methoxyphenylthio)benzo[c][1,2]oxaborol-1(3H)-ol]
13 | 180 to 192 °C | COc1ccc(S(=O)(=O)c2ccc3c(c2)B(O)OC3)cc1 [C33, 6-(4-methoxyphenylsulfonyl)benzo[c][1,2]oxaborol-1(3H)-ol]
14 | 134 to 137 °C | CCOC(=O)COc1ccc2c(c1)COB2O [C41, Ethyl 2-(1-hydroxy-1,3-dihydrobenzo[c][1,2]oxaborol-5-yloxy)acetate]
15 | 163 to 166 °C | O=C(O)COc1ccc2c(c1)COB2O [C42, 2-(1-hydroxy-1,3-dihydrobenzo[c][1,2]oxaborol-5-yloxy)acetic acid]
16 | 99 to 104 °C | OB1OCc2ccc(Sc3cccs3)cc21 [C43, 6-(thiophen-2-ylthio)benzo[c][1,2]oxaborol-1(3H)-ol]
17 | 135 to 138 °C | OB1OCc2ccc(Sc3ccc(F)cc3)cc21 [C44, 6-(4-fluorophenylthio)benzo[c][1,2]oxaborol-1(3H)-ol]
18 | 96 to 98 °C | CCCCC(=O)c1cccc(COc2ccc3c(c2)COB3O)c1 [C45, 1-(3-((1-hydroxy-1,3-dihydrobenzo[c][1,2]oxaborol-5-yloxy)methyl)phenyl)pentan-1-one]
19 | 158 to 163 °C | O=C(COc1ccc2c(c1)COB2O)N1CCCCC1 [C46, 2-(1-hydroxy-1,3-dihydrobenzo[c][1,2]oxaborol-5-yloxy)-1-(piperidin-1-yl)ethanone]
20 | 190 to 195 °C | O=C(COc1ccc2c(c1)COB2O)N1CCN(c2ncccn2)CC1 [C47, 2-(1-hydroxy-1,3-dihydrobenzo[c][1,2]oxaborol-5-yloxy)-1-(4-(pyrimidin-2-yl)piperazin-1-yl)ethanone]
21 | 135 to 138 °C | OB1OCc2ccc(N3CCN(c4ccccn4)CC3)cc21 [C48, 6-(4-(pyridin-2-yl)piperazin-1-yl)benzo[c][1,2]oxaborol-1(3H)-ol]
22 | 120 to 123 °C | CN(C)c1ccc2c(c1)B(O)OC2 [C51, 6-(dimethylamino)benzo[c][1,2]oxaborol-(3H)-ol]
23 | 186 to 193 °C | O=C(Nc1ccc2c(c1)B(O)OC2)c1ccccc1 [C52, N-(1-hydroxy-1,3-dihydrobenzo[c][1,2]oxaborol-6-yl)benzamide]
24 | 159 to 161 °C | OB1OCc2ccc(N3CCN(c4ccccc4)CC3)cc21 [C53, 6-(4-phenylpiperazin-1-yl)benzo[c][1,2]oxaborol-1(3H)-ol]
25 | 135 to 140 °C | OB1OCc2ccc(-n3ccc4ccccc43)cc21 [C55, 6-(1H-indol-1-yl)benzo[c][1,2]oxaborol-1(3H)-ol]
26 | 128 to 132 °C | OB1OCc2ccc(N3CCOCC3)cc21 [C56, 6-morpholinobenzo[c][1,2]oxaborol-1(3H)-ol]
27 | 162 to 167 °C | O=[N+]([O-])c1cc2c(cc1F)COB2O [C58, 5-fluoro-6-nitrobenzo[c][1,2]oxaborol-1(3H)-ol]
28 | > 257 °C | OCc1cc2c(cc1Br)COB2O [C59, 5-bromo-6-(hydroxymethyl)benzo[c][1,2]oxaborol-1(3H)-ol]

Row | melting point | SMILES
29 | > 250 °C | OB1OCc2cc3c(cc21)COB3O [C60, 3,7-dihydro-1,5-dihydroxy-1H,3H-Benzo[2-c: 4,5-c′]bis[1,2]oxaborole]
30 | 175 to 184 °C | O=S(=O)(Nc1ccc2c(c1)B(O)OC2)c1ccccc1 [C62, N-(1-hydroxy-1,3-dihydrobenzo[c][1,2]oxaborol-6-yl)benzenesulfonamide]
31 | 176 to 185 °C | CC(=O)Nc1ccc2c(c1)B(O)OC2 [C63, N-(1-hydroxy-1,3-dihydrobenzo[c][1,2]oxaborol-6-yl)acetamide]
32 | 241 to 250 °C | OCc1cccc2c1B(O)OC2 [C64, 7-(hydroxymethyl)benzo[c][1,2]oxaborol-1(3H)-ol]
33 | 107 to 111 °C | Cc1cccc2c1B(O)OC2 [C65, 7-methylbenzo[c][1,2]oxaborol-1(3H)-ol]
34 | 159 to 163 °C | OB1OCc2ccc(-n3cc(Sc4ccccc4)c4ccccc43)cc21 [C66, 6-(3-(phenylthio)-1H-indol-1-yl)benzo[c][1,2]oxaborol-1(3H)-ol]
35 | 135 to 141 °C | N#CCCSc1cn(-c2ccc3c(c2)B(O)OC3)c2ccccc12 [C67, 3-(1-(1-hydroxy-1,3-dihydrobenzo[c][1,2]oxaborol-6-yl)-1H-indol-3-ylthio)propanenitrile]
36 | 120 to 124 °C | COc1ccc2c(ccn2-c2ccc3c(c2)B(O)OC3)c1 [C68, 6-(5-methoxy-1H-indol-1-yl)benzo[c][1,2]oxaborol-1(3H)-ol]
37 | 185 to 189 °C | OB1OCc2cc3c(cc21)OCO3 [C69, 5,6-methylenedioxybenzo[c][1,2]oxaborol-1(3H)-ol]
38 | 142 to 145 °C | Nc1cc2c(cc1F)COB2O [C70, 6-amino-5-fluorobenzo[c][1,2]oxaborol-1(3H)-ol]
39 | 159 to 164 °C | OB1OCc2cc(F)c(NCc3ccccc3)cc21 [C71, 6-(benzylamino)-5-fluorobenzo[c][1,2]oxaborol-1(3H)-ol]
40 | 135 to 141 °C | COc1ccc2c(c1)c(Sc1ccccc1)cn2-c1ccc2c(c1)B(O)OC2 [C72, 6-(5-methoxy-3-(phenylthio)-1H-indol-1-yl)benzo[c][1,2]oxaborol-1(3H)-ol]
41 | 149 to 154 °C | COc1ccc2c(c1)c(SCCC#N)cn2-c1ccc2c(c1)B(O)OC2 [C73, 3-(1-(1-hydroxy-1,3-dihydrobenzo[c][1,2]oxaborol-6-yl)-5-methoxy-1H-indol-3-ylthio)propanenitrile]
42 | 148 to 153 °C | N#Cc1ccc(Oc2cccc3c2B(O)OC3)cc1 [C74, 4-(1-hydroxy-1,3-dihydrobenzo[c][1,2]oxaborol-7-yloxy)benzonitrile]
43 | 149 to 154 °C | OB1OCc2ccc(-n3ccc4cc(Cl)ccc43)cc21 [C75, 6-(5-chloro-1H-indol-1-yl)benzo[c][1,2]oxaborol-1(3H)-ol]
44 | > 225 °C | N#CCCSc1cn(-c2ccc3c(c2)B(O)OC3)c2ccc(Cl)cc12 [C76, 3-(5-chloro-1-(1-hydroxy-1,3-dihydrobenzo[c][1,2]oxaborol-6-yl)-1H-indol-3-ylthio)propanenitrile]
45 | 126 to 133 °C | OB1OCc2ccc(NCc3ccccc3)cc21 [C77, 6-(benzylamino)benzo[c][1,2]oxaborol-1(3H)-ol]
46 | 115 to 123 °C | OB1OCc2ccc(N(Cc3ccccc3)Cc3ccccc3)cc21 [C78, 6-(dibenzylamino)benzo[c][1,2]oxaborol-1(3H)-ol]
47 | 145 to 151 °C | OB1OCc2ccc(-n3cc(Sc4ccccc4)c4cc(Cl)ccc43)cc21 [C80, 6-(5-chloro-3-(phenylthio)-1H-indol-1-yl)benzo[c][1,2]oxaborol-1(3H)-ol]
48 | 120 to 124 °C | OB1OCc2cccc(F)c21 [C86, 7-fluorobenzo[c][1,2]oxaborol-1(3H)-ol]
49 | 98 to 105 °C | OB1OCc2ccc(Oc3ccc(C(F)(F)F)cc3)cc21 [C87, 6-(4-(trifluoromethyl)phenoxy)benzo[c][1,2]oxaborol-1(3H)-ol]
50 | 157 to 161 °C | OB1OCc2ccc(Sc3ccc(Cl)cc3)cc21 [C88, 6-(4-chlorophenylthio)benzo[c][1,2]oxaborol-1(3H)-ol]
51 | 154 to 161 °C | [O-][S+](c1ccc(Cl)cc1)c1ccc2c(c1)B(O)OC2 (stereo not shown) [C89, 6-(4-chlorophenylsulfinyl)benzo[c][1,2]oxaborol-1(3H)-ol]
52 | 157 to 163 °C | O=S(=O)(c1ccc(Cl)cc1)c1ccc2c(c1)B(O)OC2 [C90, 6-(4-chlorophenylsulfonyl)benzo[c][1,2]oxaborol-1(3H)-ol]
53 | 142 to 152 °C | O=S(=O)(c1ccccc1)N(c1ccc2c(c1)COB2O)S(=O)(=O)c1ccccc1 [C91, N-(1-hydroxy-1,3-dihydrobenzo[c][1,2]oxaborol-5-yl)-N-(phenylsulfonyl)benzenesulfonamide]
54 | 111 to 113 °C | OB1OCc2ccc(Sc3ccc(C(F)(F)F)cc3)cc21 [C92, 6-(4-(trifluoromethyl)phenylthio)benzo[c][1,2]oxaborol-1(3H)-ol]
55 | 79 to 88 °C | [O-][S+](c1ccc(C(F)(F)F)cc1)c1ccc2c(c1)B(O)OC2 (stereo not shown) [C93, 6-(4-(trifluoromethyl)phenylsulfinyl)benzo[c][1,2]oxaborol-1(3H)-ol]
